# Reference: ChEMBL document CHEMBL3045421, “5-Nitro-heteroarylidene analogs of 2-thiazolylimino-4-thiazolidinones as a novel series of antibacterial agents” (2013)
# What was measured:
# Type in all cases: functional
# Helicobacter pylori [1] = test: Antibacterial activity against Helicobacter pylori strain 3 assessed as diameter of growth inhibition zone at 8 ug/disk after 3-5 days by filter paper disk diffusion method; conditions: read-out: DIZ
# Helicobacter pylori [2] = test: Antibacterial activity against Helicobacter pylori strain 3 assessed as diameter of growth inhibition zone at 32 ug/disk after 3-5 days by filter paper disk diffusion method; conditions: read-out: DIZ
# Helicobacter pylori [3] = test: Antibacterial activity against Helicobacter pylori strain 1 assessed as diameter of growth inhibition zone at 32 ug/disk after 3-5 days by filter paper disk diffusion method; conditions: read-out: DIZ
# Helicobacter pylori [4] = test: Antibacterial activity against Helicobacter pylori strain 1 assessed as diameter of growth inhibition zone at 8 ug/disk after 3-5 days by filter paper disk diffusion method; conditions: read-out: DIZ
# [5] = test system: Staphylococcus epidermidis; test: microbe, parasite or virus in culture; conditions: ATCC 12228, 24 h
# Description: Antibacterial activity against Staphylococcus epidermidis ATCC 12228 assessed as growth inhibition after 24 hr by microdilution method
# Helicobacter pylori [6] = test: Antibacterial activity against Helicobacter pylori strain 3 assessed as diameter of growth inhibition zone at 64 ug/disk after 3-5 days by filter paper disk diffusion method; conditions: read-out: DIZ
# Helicobacter pylori [7] = test: Antibacterial activity against Helicobacter pylori strain 1 assessed as diameter of growth inhibition zone at 16 ug/disk after 3-5 days by filter paper disk diffusion method; conditions: read-out: DIZ
# Helicobacter pylori [8] = test: Antibacterial activity against Helicobacter pylori strain 2 assessed as diameter of growth inhibition zone at 64 ug/disk after 3-5 days by filter paper disk diffusion method; conditions: read-out: DIZ
# Klebsiella pneumoniae = test: microbe, parasite or virus in culture; conditions: ATCC 10031, 24 h
# Description: Antibacterial activity against Klebsiella pneumoniae ATCC 10031 assessed as growth inhibition after 24 hr by microdilution method
# Bacillus subtilis = test: microbe, parasite or virus in culture; conditions: ATCC 6633, 24 h
# Description: Antibacterial activity against Bacillus subtilis ATCC 6633 assessed as growth inhibition after 24 hr by microdilution method
# Helicobacter pylori [9] = test: Antibacterial activity against Helicobacter pylori strain 3 assessed as diameter of growth inhibition zone at 16 ug/disk after 3-5 days by filter paper disk diffusion method; conditions: read-out: DIZ
# Escherichia coli = test: microbe, parasite or virus in culture; conditions: ATCC 8739, 24 h
# Description: Antibacterial activity against Escherichia coli ATCC 8739 assessed as growth inhibition after 24 hr by microdilution method
# Staphylococcus aureus = test: microbe, parasite or virus in culture; conditions: ATCC 6538p, 24 h
# Description: Antibacterial activity against Staphylococcus aureus ATCC 6538p assessed as growth inhibition after 24 hr by microdilution method
# Pseudomonas aeruginosa = test: microbe, parasite or virus in culture; conditions: ATCC 9027, 24 h
# Description: Antibacterial activity against Pseudomonas aeruginosa ATCC 9027 assessed as growth inhibition after 24 hr by microdilution method
# Helicobacter pylori [10] = test: Antibacterial activity against Helicobacter pylori strain 2 assessed as diameter of growth inhibition zone at 8 ug/disk after 3-5 days by filter paper disk diffusion method; conditions: read-out: DIZ
# Helicobacter pylori [11] = test: Antibacterial activity against Helicobacter pylori strain 1 assessed as diameter of growth inhibition zone at 64 ug/disk after 3-5 days by filter paper disk diffusion method; conditions: read-out: DIZ
# Helicobacter pylori [12] = test: Antibacterial activity against Helicobacter pylori strain 2 assessed as diameter of growth inhibition zone at 32 ug/disk after 3-5 days by filter paper disk diffusion method; conditions: read-out: DIZ
# Helicobacter pylori [13] = test: Antibacterial activity against Helicobacter pylori strain 2 assessed as diameter of growth inhibition zone at 16 ug/disk after 3-5 days by filter paper disk diffusion method; conditions: read-out: DIZ
SMILES,MIC [5] [µg/mL],MIC (Klebsiella pneumoniae) [µg/mL],MIC (Bacillus subtilis) [µg/mL],MIC (Escherichia coli) [µg/mL],MIC (Staphylococcus aureus) [µg/mL],MIC (Pseudomonas aeruginosa) [µg/mL],zone of inhibition at 8 µg/disc (Helicobacter pylori [1]) [mm],zone of inhibition at 32 µg/disc (Helicobacter pylori [2]) [mm],zone of inhibition at 32 µg/disc (Helicobacter pylori [3]) [mm],zone of inhibition at 8 µg/disc (Helicobacter pylori [4]) [mm],zone of inhibition at 64 µg/disc (Helicobacter pylori [6]) [mm],zone of inhibition at 16 µg/disc (Helicobacter pylori [7]) [mm],zone of inhibition at 64 µg/disc (Helicobacter pylori [8]) [mm],zone of inhibition at 16 µg/disc (Helicobacter pylori [9]) [mm],zone of inhibition at 8 µg/disc (Helicobacter pylori [10]) [mm],zone of inhibition at 64 µg/disc (Helicobacter pylori [11]) [mm],zone of inhibition at 32 µg/disc (Helicobacter pylori [12]) [mm],zone of inhibition at 16 µg/disc (Helicobacter pylori [13]) [mm]
O=C1N/C(=N\c2nc3ccccc3s2)S/C1=C\C1C(=O)Nc2ccccc21 (stereo unspecified),> 100,> 100,> 100,> 100,> 100,> 100,6,6,10,6,10,6,18,6,11,13,16,13
O=C1N/C(=N\c2nccs2)S/C1=C\c1ccc([N+](=O)[O-])s1,0.39,> 100,0.78,> 100,1.56,> 100,33,40,42,36,45,40,34,35,25,45,30,28
O=C1N/C(=N\c2nc(-c3ccccc3)cs2)S/C1=C\c1ccc([N+](=O)[O-])s1,> 100,> 100,> 100,> 100,> 100,> 100,,,,,,,,,,,,
O=C1N/C(=N\c2nc3ccccc3s2)S/C1=C\c1ccc([N+](=O)[O-])s1,0.19,> 100,0.78,> 100,0.39,> 100,,,,,,,,,,,,
Cn1c(/C=C2\S/C(=N/c3nccs3)NC2=O)ccc1[N+](=O)[O-],0.19,0.39,0.19,12.5,0.78,> 100,> 50,> 50,> 50,> 50,> 50,> 50,> 50,> 50,> 50,> 50,> 50,> 50
Cn1c(/C=C2\S/C(=N/c3nc4ccccc4s3)NC2=O)ccc1[N+](=O)[O-],25,25,12.5,> 100,25,> 100,22,26,29,23,30,26,35,24,27,32,33,29
O=C1N/C(=N\c2nccs2)S/C1=C\C1C(=O)Nc2ccccc21 (stereo unspecified),12.5,> 100,6.25,> 100,25,> 100,10,14,13,10,15,12,20,10,12,15,18,14
O=C(O)c1cn(C2CC2)c2cc(N3CCNCC3)c(F)cc2c1=O [CIPROFLOXACIN],0.097,0.006,0.19,,0.19,0.39,,,,,,,,,,,,
Cc1ncc([N+](=O)[O-])n1CCO [METRONIDAZOLE],,,,,,,,,,,,14,,14,,,,14

# Continued, in another order:
MIC [5] [µg/mL],MIC (Klebsiella pneumoniae) [µg/mL],MIC (Bacillus subtilis) [µg/mL],MIC (Escherichia coli) [µg/mL],MIC (Staphylococcus aureus) [µg/mL],MIC (Pseudomonas aeruginosa) [µg/mL],SMILES,zone of inhibition at 8 µg/disc (Helicobacter pylori [1]) [mm],zone of inhibition at 32 µg/disc (Helicobacter pylori [2]) [mm],zone of inhibition at 32 µg/disc (Helicobacter pylori [3]) [mm],zone of inhibition at 8 µg/disc (Helicobacter pylori [4]) [mm],zone of inhibition at 64 µg/disc (Helicobacter pylori [6]) [mm],zone of inhibition at 16 µg/disc (Helicobacter pylori [7]) [mm],zone of inhibition at 64 µg/disc (Helicobacter pylori [8]) [mm],zone of inhibition at 16 µg/disc (Helicobacter pylori [9]) [mm],zone of inhibition at 8 µg/disc (Helicobacter pylori [10]) [mm],zone of inhibition at 64 µg/disc (Helicobacter pylori [11]) [mm],zone of inhibition at 32 µg/disc (Helicobacter pylori [12]) [mm],zone of inhibition at 16 µg/disc (Helicobacter pylori [13]) [mm]
100,> 100,> 100,100,> 100,> 100,COc1ccc(-c2csc(/N=C3\NC(=O)/C(=C/C4C(=O)Nc5ccccc54)S3)n2)cc1 (stereo unspecified),6,6,6,6,6,6,6,6,6,6,6,6
25,> 100,50,> 100,50,> 100,O=C1N/C(=N\c2nc(-c3ccccc3)cs2)S/C1=C\c1ccc([N+](=O)[O-])o1,13,18,15,10,20,13,23,15,10,20,18,12
12.5,> 100,12.5,> 100,25,100,COc1ccc(-c2csc(/N=C3\NC(=O)/C(=C/c4ccc([N+](=O)[O-])o4)S3)n2)cc1,12,19,12,≤ 6,26,10,20,16,15,14,19,17
0.39,6.25,0.39,3.12,0.97,> 100,O=C1N/C(=N\c2nc3ccccc3s2)S/C1=C\c1ccc([N+](=O)[O-])o1,25,30,28,20,34,24,30,28,22,33,26,24
> 100,> 100,> 100,100,> 100,> 100,COc1ccc(-c2csc(/N=C3\NC(=O)/C(=C/c4ccc([N+](=O)[O-])s4)S3)n2)cc1,22,30,27,22,35,25,39,25,30,30,35,32
50,> 100,50,> 100,> 100,> 100,Cn1c(/C=C2\S/C(=N/c3nc(-c4ccccc4)cs3)NC2=O)ccc1[N+](=O)[O-],6,6,6,6,6,6,6,6,6,6,6,6
25,100,50,> 100,> 100,> 100,COc1ccc(-c2csc(/N=C3\NC(=O)/C(=C/c4ccc([N+](=O)[O-])n4C)S3)n2)cc1,6,6,6,6,6,6,6,6,6,6,6,6
